Reference: PubChem BioAssay (NCI)
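Five compound concentrations were applied to cells in 96-well plates for 48 hours; endpoints were derived by simple linear interpolation of the resulting dose-response curve. Here, GI50 denotes the concentration required for 50% inhibition of growth. TGI: total growth inhibition.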

Columns and labels:
Test in all cases: NCI anticancer screen, dose series, 48 h
BT-549 breast = system: BT-549 breast
HOP-62 NSCLC = system: HOP-62 NSCLC
786-0 renal = system: 786-0 renal
HOP-92 NSCLC = system: HOP-92 NSCLC
HL-60(TB) leukemia = system: HL-60(TB) leukemia
NCI-H226 lung = system: NCI-H226 lung
SK-MEL-28 melanoma = system: SK-MEL-28 melanoma
SN12C renal = system: SN12C renal
SK-MEL-5 melanoma = system: SK-MEL-5 melanoma
TK-10 renal = system: TK-10 renal
PC-3 prostate = system: PC-3 prostate
SR leukemia = system: SR leukemia
UO-31 renal = system: UO-31 renal
NCI-H522 lung = system: NCI-H522 lung
RXF 393 renal = system: RXF 393 renal
HS 578T breast = system: HS 578T breast
M14 melanoma = system: M14 melanoma
OVCAR-4 ovarian = system: OVCAR-4 ovarian
IGROV1 ovarian = system: IGROV1 ovarian
SF-295 CNS = system: SF-295 CNS
HT29 colon = system: HT29 colon
NCI/ADR-RES ovarian = system: NCI/ADR-RES ovarian
SW-620 colon = system: SW-620 colon
CAKI-1 renal = system: CAKI-1 renal
DU-145 prostate = system: DU-145 prostate
SK-MEL-2 melanoma = system: SK-MEL-2 melanoma
SNB-75 CNS = system: SNB-75 CNS
MALME-3M melanoma = system: MALME-3M melanoma
MDA-MB-435 = system: MDA-MB-435
CCRF-CEM leukemia = system: CCRF-CEM leukemia
RPMI-8226 leukemia = system: RPMI-8226 leukemia
OVCAR-5 ovarian = system: OVCAR-5 ovarian
HCT-116 colon = system: HCT-116 colon
T-47D breast = system: T-47D breast
KM12 colon = system: KM12 colon
A549 NSCLC = system: A549 NSCLC
HCC-2998 colon = system: HCC-2998 colon
OVCAR-8 ovarian = system: OVCAR-8 ovarian
ACHN renal = system: ACHN renal
HCT-15 colon = system: HCT-15 colon
SF-539 CNS = system: SF-539 CNS
UACC-257 melanoma = system: UACC-257 melanoma
A498 renal = system: A498 renal
COLO 205 colon = system: COLO 205 colon
SK-OV-3 ovarian = system: SK-OV-3 ovarian
K-562 leukemia = system: K-562 leukemia
EKVX NSCLC = system: EKVX NSCLC
LOX IMVI melanoma = system: LOX IMVI melanoma
UACC-62 melanoma = system: UACC-62 melanoma
OVCAR-3 ovarian = system: OVCAR-3 ovarian
NCI-H23 lung = system: NCI-H23 lung
MDA-MB-231 breast = system: MDA-MB-231 breast
U251 CNS = system: U251 CNS

COc1cccc2c(Nc3ccc(C(=O)NCCN(C)C)cc3)cc(-c3ccccc3)nc12
GI50 (BT-549 breast): 20.3 µM | TGI (BT-549 breast): 44.8 µM | GI50 (HOP-62 NSCLC): 13.8 µM | TGI (HOP-62 NSCLC): 29.3 µM | GI50 (786-0 renal): 2.26 µM | TGI (786-0 renal): 14.2 µM | GI50 (HOP-92 NSCLC): 0.832 µM | TGI (HOP-92 NSCLC): 8.86 µM | GI50 (HL-60(TB) leukemia): 14.9 µM | TGI (HL-60(TB) leukemia): 39.9 µM | GI50 (NCI-H226 lung): 19.3 µM | TGI (NCI-H226 lung): 40 µM | GI50 (SK-MEL-28 melanoma): 37.1 µM | TGI (SK-MEL-28 melanoma): > 100 µM | GI50 (SN12C renal): 16.1 µM | TGI (SN12C renal): 36.4 µM | GI50 (SK-MEL-5 melanoma): 17.3 µM | TGI (SK-MEL-5 melanoma): 32.1 µM | GI50 (TK-10 renal): 23.8 µM | TGI (TK-10 renal): 57.2 µM | GI50 (PC-3 prostate): 13.3 µM | TGI (PC-3 prostate): 40.5 µM | GI50 (SR leukemia): 1.86 µM | TGI (SR leukemia): 7.52 µM | GI50 (UO-31 renal): 13.9 µM | TGI (UO-31 renal): 32.3 µM | GI50 (NCI-H522 lung): 16.6 µM | TGI (NCI-H522 lung): 32.4 µM | GI50 (RXF 393 renal): 5.12 µM | TGI (RXF 393 renal): 19.7 µM | GI50 (HS 578T breast): 21.4 µM | TGI (HS 578T breast): 53.6 µM | GI50 (M14 melanoma): 16.3 µM | TGI (M14 melanoma): 30.5 µM | GI50 (OVCAR-4 ovarian): 33 µM | TGI (OVCAR-4 ovarian): > 100 µM | GI50 (IGROV1 ovarian): 10.8 µM | TGI (IGROV1 ovarian): 25.6 µM | GI50 (SF-295 CNS): 22.9 µM | TGI (SF-295 CNS): 41.4 µM | GI50 (HT29 colon): 28.5 µM | TGI (HT29 colon): > 100 µM | GI50 (NCI/ADR-RES ovarian): 18.3 µM | TGI (NCI/ADR-RES ovarian): 42.9 µM | GI50 (SW-620 colon): 14 µM | TGI (SW-620 colon): 33.4 µM | GI50 (CAKI-1 renal): 27.8 µM | TGI (CAKI-1 renal): 55.3 µM | GI50 (DU-145 prostate): 16.4 µM | TGI (DU-145 prostate): 33 µM | GI50 (SK-MEL-2 melanoma): 17.9 µM | TGI (SK-MEL-2 melanoma): 36.8 µM | GI50 (SNB-75 CNS): 29.5 µM | TGI (SNB-75 CNS): 66 µM | GI50 (MALME-3M melanoma): 20 µM | TGI (MALME-3M melanoma): 40.2 µM | GI50 (MDA-MB-435): 22 µM | TGI (MDA-MB-435): 39.1 µM | GI50 (CCRF-CEM leukemia): 8.86 µM | TGI (CCRF-CEM leukemia): 33.2 µM | GI50 (RPMI-8226 leukemia): 6.11 µM | TGI (RPMI-8226 leukemia): 24.4 µM | GI50 (OVCAR-5 ovarian): 23.7 µM | TGI (OVCAR-5 ovarian): 50.6 µM | GI50 (HCT-116 colon): 3.88 µM | TGI (HCT-116 colon): 18.6 µM | GI50 (T-47D breast): 19.7 µM | TGI (T-47D breast): 50.2 µM | GI50 (KM12 colon): 19.7 µM | TGI (KM12 colon): 43.2 µM | GI50 (A549 NSCLC): 16 µM | TGI (A549 NSCLC): 33.1 µM | GI50 (HCC-2998 colon): 11.5 µM | TGI (HCC-2998 colon): 24.9 µM | GI50 (OVCAR-8 ovarian): 17.3 µM | TGI (OVCAR-8 ovarian): 42.7 µM | GI50 (ACHN renal): 17.6 µM | TGI (ACHN renal): 37.9 µM | GI50 (HCT-15 colon): 16.4 µM | TGI (HCT-15 colon): 38.4 µM | GI50 (SF-539 CNS): 19.1 µM | TGI (SF-539 CNS): 37.1 µM | GI50 (UACC-257 melanoma): 15.7 µM | TGI (UACC-257 melanoma): 29.9 µM | GI50 (A498 renal): 17.2 µM | TGI (A498 renal): 32 µM | GI50 (COLO 205 colon): 11.2 µM | TGI (COLO 205 colon): 26.5 µM | GI50 (SK-OV-3 ovarian): 29.4 µM | TGI (SK-OV-3 ovarian): 71.2 µM | GI50 (K-562 leukemia): 10.8 µM | TGI (K-562 leukemia): 31.5 µM | GI50 (EKVX NSCLC): 27 µM | TGI (EKVX NSCLC): 81.4 µM | GI50 (LOX IMVI melanoma): 18.1 µM | TGI (LOX IMVI melanoma): 33.9 µM | GI50 (UACC-62 melanoma): 18.2 µM | TGI (UACC-62 melanoma): 32.5 µM | GI50 (OVCAR-3 ovarian): 25.6 µM | TGI (OVCAR-3 ovarian): 54.1 µM | GI50 (NCI-H23 lung): 20.3 µM | TGI (NCI-H23 lung): 45.6 µM | GI50 (MDA-MB-231 breast): 4.15 µM | TGI (MDA-MB-231 breast): 19.4 µM | GI50 (U251 CNS): 18.8 µM | TGI (U251 CNS): 38.3 µM
